We go through one compound from patent US11167007B2, “FOXM1 modulators and uses thereof” (City of Hope, priority 2016, dated 2021).

The subject of experiment [1] is AR activity in muscle or SV. Kind of experiment: Weights of levator ani muscle and seminal vesicles at end of study. Type of experiment: in vivo, rat. The settings on record: rats, compared to controls. The procedure: (§1) Animals and Drugs. This study was carried out in strict accordance with the recommendations in the Guide for the Care and Use of Laboratory Animals of the National Institutes of Health. All experiments were performed under the IUCAC approval of City of Hope. Animals were purchased from Jackson Laboratory (Bar Harbor, Main). For the pilot pharmacokinetic experiment, nine male Sprague Dawley rats (n=3) were administered 1, 10, or 100 mg/kg intraperitoneal injections thrice per week for four weeks. One hour following the final dose, blood and spinal fluid were collected and analyzed by mass spectrometry. For the efficacy experiment, rats were divided into 3 groups (n=7) as follows: intact, castrated, and thiostrepton. […] Following a treatment period of 7 days, rats were euthanized and organs harvested, weighed and processed for quantitative RT-PCR.
Androgens are known to control the growth and maintenance of the skeletal muscle and seminal vesicles. […] In order to investigate the impact of thiostrepton on these tissues, their weights at the end of the study were assessed. […] Because an equivalent androgen-dependent change in weight cannot be tested in motor neurons, the levels of tissue-selective androgen regulate genes, as a marker of AR activity, were assessed. […] RNA was isolated from spinal cord and LA muscle tissue and transcript levels were measured by RT-qPCR (FIG. 5F, FIG. 5H). […]

Experiment [2] concerns FOXM1. Description: Western blot of FOXM1 levels in GT1-7 CARY cells. Type of experiment: cell-based, murine. The settings on record: relative to p84 loading control, FIG. 3C. From the text:
(§2) Western Blot. Cell lysates was separated on a 6% SDS page gel and transferred to a nitrocellulose membrane. The membrane was blocked for one hour in 5% skim milk dissolved in TBS-T and probed with the following antibodies ([…]): FoxM1 (rabbit, GeneTex), AR: 441 (mouse, Santa Cruz Biotechnology), β-catenin (rabbit 9562, Cell Signaling Technology), p84 (mouse, GeneTex) and actin (mouse, Santa Cruz Biotechnology). Horse radish peroxidase linked secondary antibodies were used along with ECL reagents for visualization. Western blots were quantified using Quantity One analysis software (BioRad).
(§3) It has been previously reported that thiostrepton causes decreased levels of FOXM1. Hegde et al, Nat Chem, 3(9):725-31 (2011); Gartel, Front Oncol, 3:150 (2013). […] The nuclear association between FOXM1 and β-catenin increases the transcriptional activity of both factors. Zhang et al, Cancer Cell, 20(4):427-42 (2011). β-catenin is a key AR coactivator in a variety of cells. Yang, J Biol Chem, 277(13):11336-44 (2002); Truica et al, Cancer Res, 60(17):4709-13 (2000). The inventors believed that thiostrepton could inhibit AR activity by limiting access to nuclear β-catenin via FOXM1 depletion. […] As expected, control actin protein was observed primarily in cytoplasmic fraction.
On the technique in general: In western blotting, separated proteins are transferred to a membrane and probed.

For experiment [3], the system named is AR. Description: Immunohistochemistry of AR in spinal cord and muscle tissue. Type of experiment: in vivo, rat. The settings on record: rats, 100 mg/kg per day, four weeks.
The subject of experiment [4] is AR activity in spinal cord. Description: RT-qPCR of androgen-regulated transcripts in spinal cord. Type of experiment: in vivo, rat. The settings on record: rats, compared to control treatment, FIG. 5F. The procedure:
as §1
qRT-PCR. The quantitative RT-PCR method has been described by Jones et al, ACS Chem Biol, 3(7):412-8 (2008). […] Differences between experimental (x) and control (y) samples were normalized to RPL19 transcript levels (androgen unresponsive) and determined with the following calculation: (2^(Ctsgene1-Ctygene1))/(2^(CtxRPL19-CtyRPL19)) One-way analysis of variance was applied to determine statistical significant among groups, where p<0.05 was considered significant. […]
On the technique in general: Real-time PCR tracks product formation cycle by cycle.

For experiment [5], the target named is T1, AR with a 112 glutamine tract (Homo sapiens, UniProt P10275, INS80QQQQQQQQQQQQQQQQQQQQQQQQQQQQQQQQQQQQQQQQQQQQQQQQQQQQQQQQQQQQQQQQQQQQQQQQQQQQQQQQQQQQQQQQQ).
T1 construct: expressed in transfected cells; host or cells: PC12 (ARQ112), inducible
Description: Androgen-responsive luciferase reporter assay in PC12 (ARQ112) neuronal cells. Type of experiment: cell-based. The settings on record: PC12 cells expressing AR with 112 glutamine tract, FIG. 2B. The text has this:
Luciferase Reporter Assay. Cells were transfected using Lipofectamine Plus (Invitrogen) with a normalization plasmid (pRL-SV40, Promega) and an androgen responsive plasmid (MMTV-luciferase or PSA-luciferase) as described in Jones et al, ACS Chem Biol, 3(7):412-8 (2008), and, where indicated, with an shRNA plasmid targeting FOXM1 (adapted for mouse FOXM1 sequence targeting) a scrambled control shRNA plasmid, or ARQ24 or ARQ65 plasmids. Christensen et al, PLoS One, 8(1):e54556 (2013). The following day, cells and drugs were distributed to 96-well plates. 24 hours later, luciferase activity was assessed by a dual luciferase assay kit (Promega) on the Tecan plate reader. Samples were run in quadruplicates and a Student's t test was performed to determine significance, where p<0.05 was considered significant.
The ability of thiostrepton to inhibit AR activity in additional neuronal cells, including ReNcell CX cells PC12 cells, and in rat L6 skeletal muscle cells was examined (FIG. 2B). Donato et al, BMC Neurosci, 8:36 (2007); Yaffe, Proc Natl Acad Sci USA, 61(2):477-83 (1968).
SBMA is caused by the activity of polyglutamine-expanded AR, and experiments were conducted to investigate the effects of thiostrepton against polyglutamine-expanded AR. […]

Experiment [6] concerns AR. Kind of experiment: Western blot of AR levels in GT1-7 CARY cells. Type of experiment: cell-based, murine.
Text: as §2, §3

SMILES strings stand for the structures.

T1 sequence (P10275 with tags, fused parts or gaps with the stated changes): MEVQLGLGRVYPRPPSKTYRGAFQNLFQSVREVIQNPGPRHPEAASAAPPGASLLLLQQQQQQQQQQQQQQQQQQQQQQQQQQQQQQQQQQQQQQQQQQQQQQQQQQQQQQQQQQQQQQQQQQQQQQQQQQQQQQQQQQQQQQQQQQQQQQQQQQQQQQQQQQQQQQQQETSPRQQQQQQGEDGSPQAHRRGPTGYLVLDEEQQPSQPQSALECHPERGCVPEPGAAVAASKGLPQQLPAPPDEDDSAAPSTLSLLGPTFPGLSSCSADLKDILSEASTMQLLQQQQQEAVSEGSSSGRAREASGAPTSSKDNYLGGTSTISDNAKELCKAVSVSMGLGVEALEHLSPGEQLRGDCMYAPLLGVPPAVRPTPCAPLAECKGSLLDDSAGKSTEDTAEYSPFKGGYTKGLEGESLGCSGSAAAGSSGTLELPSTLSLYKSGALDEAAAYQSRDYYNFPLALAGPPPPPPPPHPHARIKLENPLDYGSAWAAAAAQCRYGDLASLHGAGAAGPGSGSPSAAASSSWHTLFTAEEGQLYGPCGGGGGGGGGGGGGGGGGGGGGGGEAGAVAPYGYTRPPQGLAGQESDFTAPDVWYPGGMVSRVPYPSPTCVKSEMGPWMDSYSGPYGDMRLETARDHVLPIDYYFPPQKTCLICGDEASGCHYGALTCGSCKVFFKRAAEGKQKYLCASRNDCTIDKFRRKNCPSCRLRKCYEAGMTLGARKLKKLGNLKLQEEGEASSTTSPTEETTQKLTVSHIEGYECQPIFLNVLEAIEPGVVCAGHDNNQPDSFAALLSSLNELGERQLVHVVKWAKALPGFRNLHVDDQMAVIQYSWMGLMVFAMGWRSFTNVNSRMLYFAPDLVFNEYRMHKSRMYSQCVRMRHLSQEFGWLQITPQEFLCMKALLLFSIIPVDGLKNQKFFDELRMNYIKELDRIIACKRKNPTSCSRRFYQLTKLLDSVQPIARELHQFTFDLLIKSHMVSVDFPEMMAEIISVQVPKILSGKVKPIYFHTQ

For `C=C(NC(=O)C(=C)NC(=O)c1csc(C2=N[C@@H]3c4csc(n4)[C@H]4NC(=O)c5csc(n5)[C@H]([C@](C)(O)[C@@H](C)O)NC(=O)[C@H]5CSC(=N5)/C(=C/C)NC(=O)[C@H]([C@@H](C)O)NC(=O)c5csc(n5)[C@]3(CC2)NC(=O)[C@H](C)NC(=O)C(=C)NC(=O)[C@H](C)NC(=O)[C@H]([C@@H](C)CC)N[C@@H]2C=Cc3c([C@H](C)O)cc(nc3[C@H]2O)C(=O)O[C@@H]4C)n1)C(N)=O` [thiostrepton], in experiment [1], the “levator ani (LA) muscle weight” value was “did not change” and the “seminal vesicles (SV) weight” value is given as “did not change”. In addition, the “FOXM1 levels (Western blot)” value in experiment [2] was “slightly decreased”. Further, in experiment [3], the “AR expression in striated muscle tissue nuclei (IHC)” value was “not affected” and the “AR levels in spinal cord neurons (IHC)” value was “not affected”. The “androgen-dependent gene transcript levels in spinal cord” value in experiment [4] is “decreases in three androgen-dependent genes”. Moreover, the “inhibition of AR activity (luciferase)” value in experiment [5] is recorded as “efficiently inhibited AR activity”. Further, the “AR levels (Western blot)” value in experiment [6] was “not consistently decreased”.
